21 compounds from patent US9212182B2, “Bicyclic sulfonamide compounds as sodium channel inhibitors” (AMGEN INC., priority 2013, dated 2015) can be followed below.

pIC50: −log10 of the molar value. Read-outs that look alike come from different tables or passages of the source.

This experiment deals with Nav 1.7 (Homo sapiens (Human), UniProt Q15858). In words: in-vitro Nav 1.7 PX (IC50). The experiment is classed as cell-based.
Nav 1.7, sequence (Q15858 whole entry): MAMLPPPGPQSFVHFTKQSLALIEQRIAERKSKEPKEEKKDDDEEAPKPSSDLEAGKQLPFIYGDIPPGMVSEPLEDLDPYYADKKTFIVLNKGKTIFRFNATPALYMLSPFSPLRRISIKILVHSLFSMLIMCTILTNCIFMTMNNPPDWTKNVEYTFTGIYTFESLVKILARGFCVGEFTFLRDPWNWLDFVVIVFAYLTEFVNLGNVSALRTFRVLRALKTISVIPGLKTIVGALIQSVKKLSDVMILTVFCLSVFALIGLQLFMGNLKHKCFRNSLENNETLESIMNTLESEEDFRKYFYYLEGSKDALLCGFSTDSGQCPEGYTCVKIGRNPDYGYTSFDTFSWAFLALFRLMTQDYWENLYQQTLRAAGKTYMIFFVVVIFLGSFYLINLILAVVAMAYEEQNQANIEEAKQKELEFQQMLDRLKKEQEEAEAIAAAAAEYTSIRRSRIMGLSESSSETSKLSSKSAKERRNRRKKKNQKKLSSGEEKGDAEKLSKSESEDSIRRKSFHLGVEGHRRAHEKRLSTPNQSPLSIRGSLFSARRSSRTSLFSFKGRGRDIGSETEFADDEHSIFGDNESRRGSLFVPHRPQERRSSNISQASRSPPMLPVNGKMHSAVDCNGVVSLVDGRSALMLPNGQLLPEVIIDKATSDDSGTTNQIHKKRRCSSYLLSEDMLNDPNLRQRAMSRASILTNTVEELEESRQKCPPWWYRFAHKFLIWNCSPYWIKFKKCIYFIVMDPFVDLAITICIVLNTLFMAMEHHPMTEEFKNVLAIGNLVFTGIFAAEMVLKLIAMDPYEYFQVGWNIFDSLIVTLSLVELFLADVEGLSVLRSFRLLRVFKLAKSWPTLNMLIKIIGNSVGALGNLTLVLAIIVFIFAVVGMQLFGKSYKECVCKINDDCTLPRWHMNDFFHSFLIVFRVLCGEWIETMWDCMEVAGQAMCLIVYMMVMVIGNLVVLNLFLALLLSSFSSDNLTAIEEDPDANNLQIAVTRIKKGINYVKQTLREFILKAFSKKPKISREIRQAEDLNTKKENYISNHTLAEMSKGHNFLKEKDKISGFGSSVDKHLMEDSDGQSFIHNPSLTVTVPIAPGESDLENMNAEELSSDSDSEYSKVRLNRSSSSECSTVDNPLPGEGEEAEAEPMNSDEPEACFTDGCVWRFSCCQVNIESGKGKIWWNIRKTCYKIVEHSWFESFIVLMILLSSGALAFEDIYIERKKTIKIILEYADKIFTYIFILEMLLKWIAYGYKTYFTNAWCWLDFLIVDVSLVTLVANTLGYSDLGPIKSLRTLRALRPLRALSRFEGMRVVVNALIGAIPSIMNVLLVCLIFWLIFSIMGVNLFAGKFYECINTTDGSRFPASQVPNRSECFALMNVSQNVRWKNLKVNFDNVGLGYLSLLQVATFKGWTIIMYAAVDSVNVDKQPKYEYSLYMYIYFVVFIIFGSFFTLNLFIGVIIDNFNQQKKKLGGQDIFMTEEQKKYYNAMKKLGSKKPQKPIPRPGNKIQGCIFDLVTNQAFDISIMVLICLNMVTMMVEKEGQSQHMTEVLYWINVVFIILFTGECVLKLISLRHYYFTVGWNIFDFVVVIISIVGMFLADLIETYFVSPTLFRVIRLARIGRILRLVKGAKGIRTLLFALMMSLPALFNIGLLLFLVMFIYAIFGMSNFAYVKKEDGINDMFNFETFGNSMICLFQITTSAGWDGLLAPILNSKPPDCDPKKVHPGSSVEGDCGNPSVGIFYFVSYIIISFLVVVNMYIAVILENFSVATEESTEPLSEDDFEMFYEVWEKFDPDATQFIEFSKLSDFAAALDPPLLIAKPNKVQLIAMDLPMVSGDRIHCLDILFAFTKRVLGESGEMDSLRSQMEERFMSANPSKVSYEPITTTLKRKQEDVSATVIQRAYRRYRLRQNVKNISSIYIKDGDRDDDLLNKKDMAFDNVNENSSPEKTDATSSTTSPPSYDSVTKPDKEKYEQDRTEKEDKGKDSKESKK

With `COc1nc(Oc2ccc(F)cc2)c(Cl)cc1-n1c(=O)ccc2cc(S(=O)(=O)Nc3ccon3)ccc21` [Example 1220, 1-(5-chloro-6-(4-fluorophenoxy)-2-methoxy-3-pyridinyl)-N-3-isoxazolyl-2-oxo-1,2-dihydro-6-quinolinesulfonamide], the pIC50 is 5.51. Same read-out and setting: as for `CCOc1cc(-c2cccc(F)c2)c(F)cc1-n1c(=O)ccc2cc(S(=O)(=O)Nc3ccon3)ccc21` (atropisomer, axis not shown; (P)) [Example 388, (P)-1-(5-ethoxy-2,3′-difluoro-[1,1′-biphenyl]-4-yl)-N-(isoxazol-3-yl)-2-oxo-1,2-dihydroquinoline-6-sulfonamide], the figure is 7.32. `COc1cc(-c2cccc(C)c2)ccc1-n1c(=O)ccc2cc(S(=O)(=O)Nc3ncc(F)cn3)ccc21` [Example 1119, N-(5-fluoro-2-pyrimidinyl)-1-(3-methoxy-3′-methyl-4-biphenylyl)-2-oxo-1,2-dihydro-6-quinolinesulfonamide] gave a pIC50 (in-vitro Nav 1.7 PX data) of 7.40. Consider `COc1cc(-c2ccc(C)c(F)c2)c(F)cc1-n1c(=O)ccc2cc(S(=O)(=O)Nc3ccnc(C)n3)ccc21` [Example 1124, 1-(2,3′-difluoro-5-methoxy-4′-methyl-4-biphenylyl)-N-(2-methyl-4-pyrimidinyl)-2-oxo-1,2-dihydro-6-quinolinesulfonamide], for which the pIC50 (in-vitro Nav 1.7 PX data) is 6.97. Turning to `COc1cc(-c2cccc(F)c2)c(Cl)cc1-n1c(=O)ccc2cc(S(=O)(=O)Nc3cccnn3)ccc21` (atropisomer, axis not shown; (M)) [Example 468, (M)-1-(2-chloro-3′-fluoro-5-methoxy-[1,1′-biphenyl]-4-yl)-2-oxo-N-(pyridazin-3-yl)-1,2-dihydroquinoline-6-sulfonamide], the pIC50 is 5.16.

Regarding `COc1nc(Oc2ccc(F)cc2F)c(Cl)cc1-n1c(=O)ccc2cc(S(=O)(=O)Nc3ccon3)ccc21` [Example 1221, 1-(5-chloro-6-(2,4-difluorophenoxy)-2-methoxy-3-pyridinyl)-N-3-isoxazolyl-2-oxo-1,2-dihydro-6-quinolinesulfonamide], the pIC50 was 5.59. For `COc1cc(-c2ccc(Cl)cc2)ccc1-n1c(=O)ccc2cc(S(=O)(=O)Nc3cccnn3)ccc21` [Example 765, 1-(4′-chloro-3-methoxy-4-biphenylyl)-2-oxo-N-3-pyridazinyl-1,2-dihydro-6-quinolinesulfonamide], the pIC50 (in-vitro Nav 1.7 PX data) is 6.95. The same measure, in the same setting: as for `COc1cc(-c2cccc(C(F)(F)F)c2)c(F)cc1-n1c(=O)ccc2cc(S(=O)(=O)Nc3cccnn3)ccc21` [Example 820, 1-(2-fluoro-5-methoxy-3′-(trifluoromethyl)-4-biphenylyl)-2-oxo-N-3-pyridazinyl-1,2-dihydro-6-quinolinesulfonamide], the figure is 7.74. The compound `O=c1ccc2cc(S(=O)(=O)Nc3ccon3)ccc2n1-c1ccc(C(F)(F)F)cc1-c1cn[nH]c1` [Example 346, P-1-(2-(1H-pyrazol-4-yl)-4-(trifluoromethyl)phenyl)-N-(isoxazol-3-yl)-2-oxo-1,2-dihydroquinoline-6-sulfonamide] had a pIC50 of 6.19. `COc1cc(-c2cccc(F)c2)ncc1-n1c(=O)ccc2cc(S(=O)(=O)Nc3ccon3)ccc21` (atropisomer, axis not shown; (P)) [Example 602, (P)-1-(6-(3-fluorophenyl)-4-methoxy-3-pyridinyl)-N-3-isoxazolyl-2-oxo-1,2-dihydro-6-quinolinesulfonamide] gave a pIC50 (in-vitro Nav 1.7 PX data) of 6.15. Compound `COc1cc(-c2cccc(C(F)(F)F)c2)ccc1-n1c(=O)ccc2cc(S(=O)(=O)Nc3ncco3)ccc21` [Example 916, 1-(3-methoxy-3′-(trifluoromethyl)-4-biphenylyl)-N-1,3-oxazol-2-yl-2-oxo-1,2-dihydro-6-quinolinesulfonamide] had a pIC50 (in-vitro Nav 1.7 PX data) of 7.30. Regarding `COc1cc(-c2ccc(Cl)c(C)c2)c(F)cc1-n1c(=O)c(OC)cc2cc(S(=O)(=O)Nc3ccon3)ccc21` (atropisomer, axis not shown; (M)) [Example 413, (M)-1-(4′-chloro-2-fluoro-5-methoxy-3′-methyl-[1,1′-biphenyl]-4-yl)-N-(isoxazol-3-yl)-3-methoxy-2-oxo-1,2-dihydroquinoline-6-sulfonamide], the pIC50 is 5.23. As to `COc1cc(-c2cccc(OC(C)C)c2)ccc1-n1c(=O)ccc2cc(S(=O)(=O)Nc3ccon3)ccc21` [Example 780, N-3-isoxazolyl-1-(3-methoxy-3′-(1-methylethoxy)-4-biphenylyl)-2-oxo-1,2-dihydro-6-quinolinesulfonamide], the pIC50 (in-vitro Nav 1.7 PX data) was 7.59. Same read-out and setting: as for `COc1cc(-c2cc(C)ccc2Cl)ccc1-n1c(=O)ccc2cc(S(=O)(=O)Nc3ccon3)ccc21` [Example 1030, 1-(2′-chloro-3-methoxy-5′-methyl-4-biphenylyl)-N-3-isoxazolyl-2-oxo-1,2-dihydro-6-quinolinesulfonamide], the figure is 7.92. In the case of `COc1nc(OCC(F)(F)C2CCOCC2)c(Cl)cc1-n1c(=O)ccc2cc(S(=O)(=O)Nc3ccon3)ccc21` [Example 1211, 1-(5-chloro-6-(2,2-difluoro-2-(tetrahydro-2H-pyran-4-yl)ethoxy)-2-methoxy-3-pyridinyl)-N-3-isoxazolyl-2-oxo-1,2-dihydro-6-quinolinesulfonamide], the pIC50 is 6.10. As to `COc1cc(-c2cccc(Cl)c2C)c(F)cc1-n1c(=O)ccc2cc(S(=O)(=O)Nc3ccon3)ccc21` [Example 712, 1-(3′-chloro-2-fluoro-5-methoxy-2′-methyl-4-biphenylyl)-N-3-isoxazolyl-2-oxo-1,2-dihydro-6-quinolinesulfonamide], for the setting “in-vitro Nav 1.7 PX data”, the pIC50 is 8.22. Still for that read-out and setting: the value for `COc1ccc(-c2ccc(Cl)c(C)c2)cc1-n1c(=O)ccc2cc(S(=O)(=O)Nc3ccon3)ccc21` [Example 846, 1-(4′-chloro-4-methoxy-3′-methyl-3-biphenylyl)-N-3-isoxazolyl-2-oxo-1,2-dihydro-6-quinolinesulfonamide] was 7.60. In the case of `COc1cc(-c2ccc(Cl)c(C#N)c2)c(F)cc1-n1c(=O)ccc2cc(S(=O)(=O)Nc3ccon3)ccc21` (atropisomer, axis not shown; (P)) [Example 508, (P)-1-(4′-chloro-3′-cyano-2-fluoro-5-methoxy-4-biphenylyl)-N-3-isoxazolyl-2-oxo-1,2-dihydro-6-quinolinesulfonamide], the pIC50 (in-vitro PatchXpress (PX)) was 8.15.

On to `COc1cc(-c2cncc(Cl)c2)c(F)cc1-n1c(=O)ccc2cc(S(=O)(=O)Nc3ccon3)ccc21` [Example 407, 1-(4-(5-chloro-3-pyridinyl)-5-fluoro-2-methoxyphenyl)-N-3-isoxazolyl-2-oxo-1,2-dihydro-6-quinolinesulfonamide], for which the negative logarithm of the IC50 (pIC50) (in-vitro PatchXpress (PX)) was 6.80. For the setting “in-vitro Nav 1.7 PX data”, `COc1cc(-c2cc(F)cc(C(F)(F)F)c2)ccc1-n1c(=O)ccc2cc(S(=O)(=O)Nc3cccnn3)ccc21` [Example 1095, 1-(3′-fluoro-3-methoxy-5′-(trifluoromethyl)-4-biphenylyl)-2-oxo-N-3-pyridazinyl-1,2-dihydro-6-quinolinesulfonamide] had a pIC50 of 8.22. As to `COc1cc(-c2cccc(C(F)(F)F)c2)c(F)cc1-n1c(=O)ccc2cc(S(=O)(=O)Nc3cccc(F)n3)ccc21` (atropisomer, axis not shown; (P)) [Example 1209, (P)-1-(2-fluoro-5-methoxy-3′-(trifluoromethyl)-4-biphenylyl)-N-(6-fluoro-2-pyridinyl)-2-oxo-1,2-dihydro-6-quinolinesulfonamide], the pIC50 was 7.12.

The term pIC50 denotes the IC50 on a negative log10 scale, so that one unit is a factor of ten. A low value points to a high IC50.
